The values below come from patent publication US12129221B2, “Difluoro phenyl amide RIP1 inhibitor” (SIRONAX LTD, priority 2018, dated 2024).

One data set concerns necrosis. Put plainly: Necrosis inhibitory activity (cell necrosis / cell viability assay). The data set is classed as cell-based. The conditions noted are these: read-out: EC50. The source says: Necrosis Inhibitory Activity
Representative IC50 of hRIP1 Kinase Assay Correlated with Our IC50 of Cell Necrosis Assay: […]

Data set [1] is described as follows: Prodrug enhanced metabolic stability: liver microsome (L). The data set is classed as in vitro ADME. More on the design: key: +, Extrapolated. The source says:
(§1) Prodrug Enhanced Metabolic Stability: Liver Microsome (L), Hepatocyte (H) and PK

A short description of data set [2]: Prodrug enhanced metabolic stability: hepatocyte (H). More on the design: key: +, Extrapolated. The data set is classed as in vitro ADME.
Source text: as §1

The nature of data set [3]: Prodrug enhanced metabolic stability: PK. More on the design: key: +, Extrapolated. The data set is classed as in vivo.
Source text: as §1

The test system of the next data set is ferroptosis. Put plainly: Ferroptosis inhibitor activity. The data set is classed as cell-based. The conditions noted are these: 1 uM threshold activity extrapolated. An excerpt: Ferroptosis Inhibitor Activity 1 Um Threshold Activity Extrapolated
Where [4] appears, read: Necrosis Inhibitory Activity, given as range.

Like-named read-outs stand apart in the source and are kept apart here.

Turning to `CCOC(=O)ON(Cc1ccccc1)C(=O)C(C)(C)CC` [Compound 50, N-benzyl-N-((ethoxycarbonyl)oxy)-2,2-dimethylbutanamide], the EC50 in the data set with necrosis (Active Pro-drugs) was 69.6 nM. Besides, the L result in data set [1] is listed as “+”. Moreover, the H result in data set [2] was “+”. Also, in data set [3], the PK entry is on record as “+”.
Regarding `CCC(C)(C)C(=O)N(Cc1ccccc1)OC(=O)c1cccc(C(=O)ON(Cc2ccccc2)C(=O)C(C)(C)CC)c1` [Compound 54, N,N′-(isophthaloylbis(oxy))bis(N-benzyl-2,2-dimethylbutanamide)], the EC50 in the data set with necrosis (Active Pro-drugs) was determined as 466 nM. Besides, the L entry in data set [1] was “+”. Moreover, the H entry in data set [2] was “+”. In data set [3], the PK result is listed as “+”.
On to `CC(C)(C)C(=O)N(O)Cc1ccccc1` [Compound 7, N-benzyl-N-hydroxypivalamide], for which the EC50 was 1 to 1000 nM in the data set with necrosis (setting [4]) and 1000 to 10000 nM with ferroptosis.
The corresponding values for `CCC(C)(C)C(=O)N(O)Cc1cccc(Br)c1` [Compound 5, N-(3-bromobenzyl)-N-hydroxy-2,2-dimethylbutanamide] are 1 to 1000 nM and 1000 to 10000 nM.
In the same order, the values of `CC(C)(C(=O)N(O)Cc1ccc(Br)cc1)C(F)(F)F` [Compound 42, N-(4-bromobenzyl)-3,3,3-trifluoro-N-hydroxy-2,2-dimethylpropanamide] are 1 to 1000 nM and 1000 to 10000 nM.
In the case of `CCC(C)(C)C(=O)N(O)Cc1cc(C)c(C)s1` [Compound 21, N-((4,5-dimethylthiophen-2-yl)methyl)-N-hydroxy-2,2-dimethylbutanamide], the values for the EC50 with necrosis (setting [4]) and in the data set on ferroptosis were 1 to 1000 nM and 1000 to 10000 nM, respectively.
With `CC1(C(C)(C)C(=O)N(O)Cc2ccccc2)CC1` [Compound 32, N-benzyl-N-hydroxy-2-methyl-2-(1-methylcyclopropyl) propanamide], the values for the EC50 in the data set with necrosis (setting [4]) and with ferroptosis were 1 to 1000 nM and 1000 to 10000 nM, respectively.
In the case of `CCC(C)(C)C(=O)N(O)Cc1ccccc1Cl` [Compound 3, N-(2-chlorobenzyl)-N-hydroxy-2,2-dimethylbutanamide], the EC50 in the data set with necrosis (setting [4]) is 1 to 1000 nM; in the data set on ferroptosis it was 1000 to 10000 nM.
In the same order, the values of `CCC(C)(C)C(=O)N(O)Cc1ccccn1` [Compound 8, N-hydroxy-2,2-dimethyl-N-(pyridin-2-ylmethyl)butanamide] are 1000 to 10000 nM and 1000 to 10000 nM.
With `O=C(C1CCCC1)N(O)Cc1ccccc1` [Compound 33, N-benzyl-N-hydroxycydopentanecarboxamide], the EC50 in the data set on necrosis (setting [4]) and with ferroptosis was 1000 to 10000 nM in each case.
In the case of `Cc1cc(CN(O)C(=O)C(C)(C)C(F)(F)F)sc1C` [Compound 47, N-((4,5-dimethylthiophen-2-yl)methyl)-3,3,3-trifluoro-N-hydroxy-2,2-dimethylpropanamide], the results for the EC50 with necrosis (setting [4]) and with ferroptosis were 1 to 1000 nM and 1000 to 10000 nM, respectively.
In the same order, the values of `[2H]c1c([2H])c([2H])c(C([2H])([2H])N(O)C(=O)C(C)(C)CC)c([2H])c1[2H]` [Compound 30, N-hydroxy-2,2-dimethyl-N-((phenyl-d5)methyl-d2)butanamide] are 1 to 1000 nM and 1000 to 10000 nM.
In the case of `CCC(C)(C)C(=O)N(O)Cc1c(F)cc(F)cc1F` [Compound 10, N-hydroxy-2,2-dimethyl-N-(2,4,6-trifluorobenzyl)butanamide], the EC50 in the data set on necrosis (setting [4]) and in the data set with ferroptosis was 1000 to 10000 nM each time.
With `CCC(C)(C)C(=O)N(O)Cc1cc(F)ccc1F` [Compound 14, N-(2,5-difluorobenzyl)-N-hydroxy-2,2-dimethylbutanamide], the results for the EC50 in the data set with necrosis (setting [4]) and in the data set on ferroptosis were 1 to 1000 nM and 1000 to 10000 nM, respectively.
In the same order, the values of `CCC(C)(C)C(=O)N(O)Cc1ccccc1F` [Compound 1, N-(2-fluorobenzyl)-N-hydroxy-2,2-dimethylbutanamide] are 1 to 1000 nM and 1000 to 10000 nM.
For `CCC(C)(C)C(=O)N(O)Cc1sccc1C` [Compound 22, N-hydroxy-2,2-dimethyl-N-((3-methylthiophen-2-yl)methyl)butanamide], the 50% effective concentration (EC50) in the data set on necrosis (setting [4]) and in the data set on ferroptosis was 1000 to 10000 nM throughout.
With `CC(C)(C(=O)N(O)Cc1ccc(Cl)cc1)C(F)(F)F` [Compound 44, N-(4-chlorobenzyl)-3,3,3-trifluoro-N-hydroxy-2,2-dimethylpropanamide], the EC50 in the data set on necrosis (setting [4]) is 1 to 1000 nM; with ferroptosis, 1000 to 10000 nM.
The corresponding values for `CCC1(C(=O)N(O)Cc2ccc(Cl)cc2)CC1` [Compound 40, N-(4-chlorobenzyl)-1-ethyl-N-hydroxycyclopropane-1-carboxamide] are 1000 to 10000 nM and 1000 to 10000 nM.
For the compound `CCC(C)(C)C(=O)N(O)Cc1c(F)c(F)c(F)c(F)c1F` [Compound 11, N-hydroxy-2,2-dimethyl-N-((perfluorophenyl)methyl)butanamide], the EC50 with necrosis (setting [4]) and in the data set with ferroptosis was 1000 to 10000 nM each time.
Take `CC(C)(C(=O)N(O)Cc1ccccc1)C(F)(F)F` [Compound 6, N-benzyl-3,3,3-trifluoro-N-hydroxy-2,2-dimethylpropanamide]: the EC50 in the data set with necrosis (setting [4]) is 1 to 1000 nM; in the data set with ferroptosis, 1000 to 10000 nM.
In the same order, the values of `CCC(C)(C)C(=O)N(O)Cc1cccc(Cl)c1` [Compound 4, N-(3-chlorobenzyl)-N-hydroxy-2,2-dimethylbutanamide] are 1 to 1000 nM and 1000 to 10000 nM.
`O=C(C1CCN(c2ncc(F)cn2)CC1)N(O)Cc1ccc(F)cc1` [Compound 85, N-(4-fluorobenzyl)-1-(5-fluoropyrimidin-2-yl)-N-hydroxypiperidine-4-carboxamide]: the EC50 with necrosis (setting [4]) and with ferroptosis was 1000 to 10000 nM each time.
With `CC(C)(C(=O)N(O)Cc1cccs1)C(F)(F)F` [Compound 49, 3,3,3-trifluoro-N-hydroxy-2,2-dimethyl-N-(thiophen-2-ylmethyl)propanamide], the figures for the EC50 in the data set on necrosis (setting [4]) and in the data set on ferroptosis were 1 to 1000 nM and 1000 to 10000 nM, respectively.
As for `CC(C)(C(=O)N(O)Cc1cc(F)cc(F)c1)C(F)(F)F` [Compound 45, N-(3,5-difluorobenzyl)-3,3,3-trifluoro-N-hydroxy-2,2-dimethylpropanamide], the EC50 was 1 to 1000 nM in the data set on necrosis (setting [4]) and 1000 to 10000 nM in the data set with ferroptosis.
With `O=C(C1CCCCC1)N(O)Cc1ccccc1` [Compound 37, N-benzyl-N-hydroxycyclohexanecarboxamide], the EC50 in the data set on necrosis (setting [4]) and in the data set with ferroptosis was 1000 to 10000 nM throughout.
Take `[2H]CC([2H])C(C)(C)C(=O)N(O)C([2H])([2H])c1c([2H])c([2H])c([2H])c([2H])c1[2H]` (stereo not shown) [Compound 31, N-hydroxy-2,2-dimethyl-N-((phenyl-d5)methyl-d2)butanamide-3,4-d2]: the values for the concentration for a half-maximal effect (EC50) in the data set on necrosis (setting [4]) and in the data set with ferroptosis were 1 to 1000 nM and 1000 to 10000 nM, respectively.
The corresponding values for `CCC(C)(C)C(=O)N(O)Cc1cc(F)cc(Cl)c1` [Compound 17, N-(3-chloro-5-fluorobenzyl)-N-hydroxy-2,2-dimethylbutanamide] are 1 to 1000 nM and 1000 to 10000 nM.
`CCC(C)(C)C(=O)N(O)Cc1cccc(F)c1F` [Compound 9, N-(2,3-difluorobenzyl)-N-hydroxy-2,2-dimethylbutanamide]: the values for the EC50 in the data set with necrosis (setting [4]) and in the data set on ferroptosis were 1 to 1000 nM and 1000 to 10000 nM, respectively.
In the same order, the values of `CC1(C(=O)N(O)Cc2ccccc2)CCCCC1` [Compound 36, N-benzyl-N-hydroxy-1-methylcyclohexane-1-carboxamide] are 1 to 1000 nM and 1000 to 10000 nM.
In the same order, the values of `CCC(C)(C)C(=O)N(O)CC1=CCCCC1` [Compound 25, N-(cyclohex-1-en-1-ylmethyl)-N-hydroxy-2,2-dimethylbutanamide] are 1 to 1000 nM and 1000 to 10000 nM.
In the same order, the values of `CCC1(C(=O)N(O)Cc2cc(F)cc(F)c2)CC1` [Compound 41, N-(3,5-difluorobenzyl)-1-ethyl-N-hydroxycyclopropane-1-carboxamide] are 1000 to 10000 nM and 1000 to 10000 nM.
As for `CCC(C)(C)C(=O)N(O)Cc1ccc(Br)cc1` [Compound 18, N-(4-bromobenzyl)-N-hydroxy-2,2-dimethylbutanamide], the EC50 in the data set on necrosis (setting [4]) was 1 to 1000 nM; in the data set on ferroptosis it was 1000 to 10000 nM.
The corresponding values for `CC(C)(C(=O)N(O)Cc1cc(F)c(F)c(F)c1)C(F)(F)F` [Compound 46, 3,3,3-trifluoro-N-hydroxy-2,2-dimethyl-N-(3,4,5-trifluorobenzyl)propenamide] are 1000 to 10000 nM and 1000 to 10000 nM.
The corresponding values for `[2H]C([2H])C([2H])([2H])C(C)(C)C(=O)N(O)Cc1ccc(F)cc1` [Compound 29, N-(4-fluorobenzyl)-N-hydroxy-2,2-dimethylbutanamide-3,3,4,4-d4] are 1 to 1000 nM and 1000 to 10000 nM.
In the same order, the values of `CCC1(C(=O)N(O)Cc2ccc(F)cc2)CC1` [Compound 39, 1-ethyl-N-(4-fluorobenzyl)-N-hydroxycyclopropane-1-carboxamide] are 1000 to 100000 nM and 1000 to 10000 nM.
As to `CCC(C)(C)C(=O)N(O)Cc1cccc(F)c1` [Compound 2, N-(3-fluorobenzyl)-N-hydroxy-2,2-dimethylbutanamide], the results for the EC50 in the data set with necrosis (setting [4]) and in the data set with ferroptosis were 1 to 1000 nM and 1000 to 10000 nM, respectively.
As to `O=C(N(O)Cc1ccccc1)C1(C(F)(F)F)CCCC1` [Compound 34, N-benzyl-N-hydroxy-1-(trifluoromethyl)cyclopentane-1-carboxamide], the figures for the EC50 in the data set on necrosis (setting [4]) and with ferroptosis were 1 to 1000 nM and 1000 to 10000 nM, respectively.
In the same order, the values of `CCC(C)(C)C(=O)N(O)Cc1cc(F)cc(C#N)c1` [Compound 12, N-(3-cyano-5-fluorobenzyl)-N-hydroxy-2,2-dimethylbutanamide] are 1 to 1000 nM and 1000 to 10000 nM.
Regarding `CC(C)(C(=O)N(O)Cc1ccc(F)cc1)C(F)(F)F` [Compound 43, 3,3,3-trifluoro-N-(4-fluorobenzyl)-N-hydroxy-2,2-dimethylpropanamide], the concentration giving a half-maximal response (EC50) was 1 to 1000 nM in the data set with necrosis (setting [4]) and 1000 to 10000 nM in the data set on ferroptosis.

For orientation: EC50 means the concentration at which the effect is half-maximal.
